According to patent publication US11530181B2, “IL-6 inhibitors and methods of treatment” (University of Florida Research Foundation, Incorporated, priority 2018, dated 2022):

Legend:
[1] = test system: OSM induced STAT3 phosphorylation; assay: Western blot, OSM induced STAT3 phosphorylation in MCF7; format: cell-based, human
Protocol: Cells were harvested and lysed in cold radioimmunoprecipitation assay (RIPA) lysis buffer containing proteasome inhibitor cocktail and phosphatase inhibitor cocktail. The protein concentrations were determined using the BCA Protein Assay kit. After adding the loading buffer and boiling at 95° C. for 10 minutes, equivalent amounts of proteins were loaded on and separated by SDS-PAGE, and then were transferred to PVDF membranes. Membranes were probed with primary antibodies (1:1000) against phospho-STAT3 (Tyr705), STAT3, phospho-STAT1 (Tyr701), STAT1, phospho-STAT6 (Tyr 641), STAT6, and GAPDH, respectively, and horseradish peroxidase (HRP)-conjugated secondary antibody (1:10000) (Cell Signaling Technology, Beverly, Mass.). Membranes were analyzed using Enhanced Chemiluminescence Plus reagents and either scanned with the Storm Scanner (Amersham Pharmacia Biotech, Inc., Piscataway, N.J.) or imaged with ChemiDoc MP imaging system (Bio-Rad, Hercules, Calif.). […] The cells were harvested after 30 minutes and analyzed by Western blot.
MCF7 breast cancer cells were seeded in 10 cm plates (1 million cells per plate) and allowed to adhere overnight. […] The cells were harvested after 30 minutes and analyzed by western blotting.

[2] = test system: BxPC-3 pancreatic cancer cell line; assay: MTT cell viability assay, BxPC-3; format: cell-based, human; details: for inhibitory effect compared to parent compound LLM4: BxPC-3, 25 μM, 48 hours; for IC50: Homo sapiens
Protocol: (§1) Human breast cancer cell lines MCF7, MDA-MB-231 and SUM159 were maintained in Dulbecco's modified Eagle medium (DMEM). Human pancreatic cancer cell line BxPC-3 was maintained in RPMI 1640 medium. Human pancreatic cancer cell line Capan-1 was maintained in Iscove's Modified Dulbecco's Medium (IMEM). All media were supplemented with 10% FBS and 1% penicillin/streptomycin, and cells were incubated in a humidified 37° C. incubator with 5% CO2. PE/CA-PJ49 cell line was purchased from external sources and maintained according to manufacturer's protocol.
(§2) Cell viability was evaluated by using the MTT assay in triple replicates in one experiment and repeated for three times. Cancer cells were seeded in 96-well plates at a density of 3,000 cells per well. The cells were incubated at 37° C. for a period of 24 hours. Escalating concentrations of IL-6/gp130 inhibitors were added in triplicate to the plates in the presence of 10% FBS. After incubation for 48 or 72 hours, a stock solution of MTT (0.5 mg/ml) was then added to each well containing the treated cells, followed by incubation at 37° C. for 3 h. After removal of medium, the MTT dye was dissolved with spectrophotometric grade DMSO and the absorbance was read at 570 nm. The IC50 value is determined by interpolation based on the absorbance value halfway between positive and negative controls. In the experiment of LLM4 showing higher efficacy in cancer cells with higher levels of IL-6, instead of using medium with 10% FBS, DMEM with 0% FBS was used in order to eliminate the influence of trace amounts of growth factors and cytokines in FBS.

[3] = test system: SUM159 breast cancer cell line; assay: MTT cell viability assay, SUM159; format: cell-based, human; details: for IC50: Homo sapiens; for inhibitory effect compared to parent compound LLM4: SUM159, 25 μM, 48 hours
Protocol: as §1
as §2, with “controls.” for “controls. In the experiment of LLM4 showing higher efficacy in cancer cells with higher levels of IL-6, instead of using medium with 10% FBS, DMEM with 0% FBS was used in order to eliminate the influence of trace amounts of growth factors and cytokines in FBS.”

[4] = test system: tert-immortalized human mammaryepithelial cells (HMEC-tert); assay: Cell viability of normal cells HMEC-tert vs SUM159; format: cell-based; details: 0.25-10 μM, 48 hours
Protocol: as §2
To examine whether the novel compounds show cytotoxicity to normal cells, cell viability was also measured when the normal cell line tert-immortalized human mammaryepithelial cells (HMEC-tert) [Yang H, Pinello C E, Luo J, et al. Small-molecule inhibitors of acetyltransferase p300 identified by high-throughput screening are potent anticancer agents. […]

[5] = test system: multiple myeloma cell line U266; assay: Cell viability assay, U266; format: cell-based, human; details: for IC50: Homo sapiens, U-266, U266, 72 h; for inhibitory effect compared to parent compound LLM4: U266, 25 μM, 48 and 72 hours
Protocol: as §2
It was reported in multiple myeloma cell line U266 that IL-6 is also elevated and of great importance for cancer progression [Jernberg W, Pettersson M, Carlsson M, et al. Increase in interleukin 6 (IL-6) and IL-6 receptor expression in a human multiple myeloma cell line, U-266, during long-term in vitro culture and the development of a possible autocrine IL-6 loop 1. Leukemia. 1992, 4, 310-318]. These novel IL-6/gp130 inhibitors were tested in U266 cells at a concentration of 25 μM for an incubation time of 48 and 72 hours. MDL16 and LLM4 were used as control compounds.

[6] = test system: IL-6 induced STAT3 phosphorylation; assay: Western blot, IL-6 induced STAT3 phosphorylation in MCF7; format: cell-based, human
Protocol: Cells were harvested and lysed in cold radioimmunoprecipitation assay (RIPA) lysis buffer containing proteasome inhibitor cocktail and phosphatase inhibitor cocktail. The protein concentrations were determined using the BCA Protein Assay kit. After adding the loading buffer and boiling at 95° C. for 10 minutes, equivalent amounts of proteins were loaded on and separated by SDS-PAGE, and then were transferred to PVDF membranes. Membranes were probed with primary antibodies (1:1000) against phospho-STAT3 (Tyr705), STAT3, phospho-STAT1 (Tyr701), STAT1, phospho-STAT6 (Tyr 641), STAT6, and GAPDH, respectively, and horseradish peroxidase (HRP)-conjugated secondary antibody (1:10000) (Cell Signaling Technology, Beverly, Mass.). Membranes were analyzed using Enhanced Chemiluminescence Plus reagents and either scanned with the Storm Scanner (Amersham Pharmacia Biotech, Inc., Piscataway, N.J.) or imaged with ChemiDoc MP imaging system (Bio-Rad, Hercules, Calif.). For cytokine induction of STAT3 phosphorylation, MCF-7 breast cancer cells were seeded in 10 cm plates (1 million cells per plate) and allowed to adhere overnight followed by serum-starvation. […] After designated hours, LLM-418 treated and untreated cells were stimulated by IL-6, LIF, and OSM (50 ng/mL). The cells were harvested after 30 minutes and analyzed by Western blot.
MCF7 breast cancer cells were seeded in 10 cm plates (1 million cells per plate) and allowed to adhere overnight. The following day, the cells were serum-starved. The cells were then left untreated or treated with LLM4 (5-20 μM). After designated hours, the LLM4 treated and untreated cells were stimulated by IL-6, LIF, OSM, CNTF, CT-1, IL-11, IL-4 or INF-γ (50 ng/ml). The cells were harvested after 30 minutes and analyzed by western blotting.

[7] = MCF7, 1-4 μM, 5 h, IL-6 50 ng/ml

| Compound | inhibition of OSM induced STAT3 phosphorylation ([1]; MCF7, 4 μM) | inhibitory effect compared to parent compound LLM4 [2] | IC50 ([2]; BXPC-3, 48 h) | IC50 ([2]; BxPC-3, Table 7) | IC50 ([3]; SUM159, 48 h) | IC50 ([3]; SUM159, SUM159, Table 7) | inhibitory effect compared to parent compound LLM4 [3] | differential cytotoxic effects to HMEC-tert and SUM159 cells [4] | IC50 [5] | inhibitory effect compared to parent compound LLM4 [5] | inhibition of IL-6 induced STAT3 phosphorylation ([6]; MCF7, 4 μM, 2, 3 and 4 hours) | inhibition of IL-6 induced STAT3 phosphorylation [6, 7] | OSM induced STAT3 phosphorylation ([1]; MCF7, 15 μM, 2, 3 and 4 hours) | IC50 ([2]; BxPC-3, text b401) | IC50 ([3]; SUM159, SUM159 human breast cancer cell line, MTT) | inhibition of IL-6 induced STAT3 phosphorylation ([6]; MCF7, 15 μM, 2, 3 and 4 hours) | inhibition of STAT3 phosphorylation induced by IL-6 ([6]; MCF7, 20 μM) | amount of P-STAT3 stimulated by IL-6 ([6]; MCF7, 5-20 μM, 5 h, IL-6 50 ng/ml, western blot) | phosphorylation of STAT3 induced by IL-6 ([6]; MCF7, treatment with 10 LLM4) |
| --- | --- | --- | --- | --- | --- | --- | --- | --- | --- | --- | --- | --- | --- | --- | --- | --- | --- | --- | --- |
| O=C(Nc1ccccc1-c1ccn[nH]1)c1ccc(OCCN2CCCCC2)cc1 [LLM418, N-(2-(1H-pyrazol-5-yl)phenyl)-4-(2-(piperidin-1-yl)ethoxy)benzamide] | very little inhibitory effect | greater inhibitory effect | 1200 nM | 1200 nM | 1700 nM | 1700 nM | greater inhibitory effect | selectively kill cancer cells | 1200 nM | greater inhibitory effects | inhibit IL-6 induced STAT3 phosphorylation quite effectively | inhibited STAT3 phosphorylation stimulated by IL-6 in MCF7 cells in a dose dependent manner | – | – | – | – | – | – | – |
| O=C(Nc1cc(F)ccc1-n1cccc1)c1ccc(OCCCN2CCCCC2)cc1 [LLM4, N-(5-fluoro-2-(1H-pyrrol-1-yl)phenyl)-4-(3-(piperidin-1-yl)propoxy)benzamide] | – | – | 10900 ± 5700 nM | – | 14500 ± 3500 nM | – | – | – | 10900 ± 1500 nM | – | – | – | remain intact | 3900 nM | 17000 ± 5500 nM | inhibit IL-6 induced STAT3 phosphorylation quite effectively | almost complete inhibition | decreased with increasing concentrations | Significant reduction |
| O=C(Nc1cccc(OCCN2CCCCC2)c1)Nc1cccc(-c2ccn[nH]2)c1 [LLM414, 1-(3-(1H-pyrazol-5-yl)phenyl)-3-(3-(2-(piperidin-1-yl)ethoxy)phenyl)urea] | – | greater inhibitory effect | 8300 nM | 8300 nM | 2800 nM | 2800 nM | greater inhibitory effect | selectively kill cancer cells | 1900 nM | greater inhibitory effects | – | inhibited STAT3 phosphorylation stimulated by IL-6 in MCF7 cells in a dose dependent manner | – | – | – | – | – | – | – |
